Assay results as given in publication PMC9551036, “A selective and orally bioavailable VHL-recruiting PROTAC achieves SMARCA2 degradation in vivo” (Nature Communications, 2022).
Several values for one entry are separate records, joined by “and”; a condition that tells them apart may be missing. Equal entries are not always repeated. Where two headings read alike, the source gives them in different places.

Columns and labels:
[1] = Body weight / tolerability in xenograft studies; type: in vivo, mouse; conditions: A549 xenograft, 80 mg/kg p.o. once daily
Experimental: To establish subcutaneous tumours, mice were injected with 5 × 10^6 NCI-H1568 in PBS with 5% FCS or with 1 × 10^7 A549 cells in PBS with 5% FCS. Tumour diameters were measured with a caliper three times a week. The volume of each tumour (in mm^3) was calculated according to the formula [tumour volume = length × diameter^2 × π/6]. To monitor side effects of treatment, mice were inspected daily for abnormalities and body weight was determined daily after the start of treatment. Animals were sacrificed when the tumours reached a size of 1500 mm^3. Mice were randomised into treatment groups when the average tumour size reached ~210–220 mm^3. Group sizes were calculated individually for each tumour model based on tumour growth during model establishment experiments. A power analysis was performed using a sample size calculator (https://www.stat.ubc.ca/~rollin/stats/ssize/n2.html). For both models used in the study, 10 mice per group were used for each experiment. All administrations were dosed with 10 ml/kg (s.c. and oral). Control mice were dosed subcutaneously with 10% HP-β-CD in 50% Ringer solution and orally with 15% HP-β-CD, that means the control mouse treatment was corresponding to the solvent of the compounds. Compound 6 was dosed subcutaneously either in a d1-4 q3d, d6-8 q2d, d11-13 q2d treatment (Treatment 1) or a q3 or 4d treatment (Treatment 2).

PBRM1 = target: T1, PBRM1 (Homo sapiens, UniProt Q86U86); assay: Western blot of PBRM1 degradation in NCI-H1568 cells; type: cell-based; conditions: SuppFig3b, per replicate
T1 construct: endogenous in cells; host or cells: NCI-H1568
T1 sequence (Q86U86 whole entry): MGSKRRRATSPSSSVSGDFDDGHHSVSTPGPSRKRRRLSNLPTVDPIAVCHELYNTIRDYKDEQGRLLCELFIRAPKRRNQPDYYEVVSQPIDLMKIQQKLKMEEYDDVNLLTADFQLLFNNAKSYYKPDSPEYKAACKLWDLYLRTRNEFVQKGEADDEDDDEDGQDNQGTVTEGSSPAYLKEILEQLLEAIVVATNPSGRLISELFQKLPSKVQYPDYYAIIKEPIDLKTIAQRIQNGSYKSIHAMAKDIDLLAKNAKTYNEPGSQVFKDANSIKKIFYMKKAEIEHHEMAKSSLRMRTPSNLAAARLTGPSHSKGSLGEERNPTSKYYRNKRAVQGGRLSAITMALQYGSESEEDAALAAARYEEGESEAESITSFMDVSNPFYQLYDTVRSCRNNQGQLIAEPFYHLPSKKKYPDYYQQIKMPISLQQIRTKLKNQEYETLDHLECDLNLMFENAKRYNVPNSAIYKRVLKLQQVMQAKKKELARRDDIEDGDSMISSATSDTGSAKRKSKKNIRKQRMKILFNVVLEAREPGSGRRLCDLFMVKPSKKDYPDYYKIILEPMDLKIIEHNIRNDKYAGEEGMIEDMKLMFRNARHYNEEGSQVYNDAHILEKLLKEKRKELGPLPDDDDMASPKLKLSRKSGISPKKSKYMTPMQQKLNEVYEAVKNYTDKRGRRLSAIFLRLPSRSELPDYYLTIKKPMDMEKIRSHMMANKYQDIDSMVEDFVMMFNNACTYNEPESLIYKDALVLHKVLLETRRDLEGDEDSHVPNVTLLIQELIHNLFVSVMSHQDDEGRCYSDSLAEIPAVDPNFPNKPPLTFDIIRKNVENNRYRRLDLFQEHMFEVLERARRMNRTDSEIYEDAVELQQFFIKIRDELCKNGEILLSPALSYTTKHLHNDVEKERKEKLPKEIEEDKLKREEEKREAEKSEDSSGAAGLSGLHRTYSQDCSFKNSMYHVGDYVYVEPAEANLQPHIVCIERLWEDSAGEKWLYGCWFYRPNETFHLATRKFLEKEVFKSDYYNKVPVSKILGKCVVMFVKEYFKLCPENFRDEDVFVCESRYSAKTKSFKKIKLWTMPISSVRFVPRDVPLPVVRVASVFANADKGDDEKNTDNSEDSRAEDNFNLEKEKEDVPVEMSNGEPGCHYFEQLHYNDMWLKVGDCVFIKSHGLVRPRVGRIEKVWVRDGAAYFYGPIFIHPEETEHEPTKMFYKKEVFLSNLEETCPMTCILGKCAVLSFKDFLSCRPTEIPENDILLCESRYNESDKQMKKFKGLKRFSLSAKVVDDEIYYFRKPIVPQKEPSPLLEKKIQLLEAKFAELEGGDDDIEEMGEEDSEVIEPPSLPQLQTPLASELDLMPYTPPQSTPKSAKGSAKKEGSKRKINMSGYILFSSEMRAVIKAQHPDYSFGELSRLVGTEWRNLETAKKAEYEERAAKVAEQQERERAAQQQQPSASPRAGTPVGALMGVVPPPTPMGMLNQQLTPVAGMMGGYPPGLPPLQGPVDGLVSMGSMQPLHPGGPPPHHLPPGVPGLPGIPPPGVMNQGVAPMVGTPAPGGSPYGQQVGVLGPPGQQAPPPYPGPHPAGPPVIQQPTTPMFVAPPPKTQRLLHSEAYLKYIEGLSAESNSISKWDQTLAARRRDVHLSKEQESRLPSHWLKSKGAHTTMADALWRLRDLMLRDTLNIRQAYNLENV
Experimental: Cells were seeded into 6-well plates 24 h before treatment. Next day, several wells were treated with compounds or DMSO as indicated, washed with PBS and lysed with lysis buffer (1% Triton X-100, 150 mM NaCl, 1 mM EDTA, 50 mM Tris pH 7.4, protease inhibitor cocktail (Roche), 50 units/mL benzonase nuclease (Sigma)). Lysates were cleared by centrifugation at 4 °C, at 15,800 × g for 10 min and the supernatants stored at −20 °C. Protein concentration was determined by BCA assay (Pierce) and the absorbance at 562 nm measured by spectrophotometry (NanoDrop ND1000). […] Western blot images were obtained through detection of SMARCA2 (Sigma #HPA029981 RRID:AB_10602406 1:1000), SMARCA4 (Abcam #ab108318 clone EPR3912 RRID:AB_10889900 1:1000), PBRM1 (Bethyl Laboratories #A301-591A RRID:AB_1078808 1:1000), β-actin (Cell Signalling #4970 clone 13E5 RRID:AB_2223172 1:2500) and GAPDH (Abcam #ab9485 RRID:AB_307275 1:2500) antibodies with IRDye 800CW donkey anti-rabbit secondary antibody (LI-COR #926-32213 RRID:AB_621848 1:10000) using a ChemiDoc MP imaging system (Bio-Rad). Western blots were quantified using Image Studio Lite (Licor, version 5.2) with normalisation to loading control and DMSO and further analysed using GraphPad Prism (version 9.2.0).

[2] = Pharmacokinetic analyses in mouse; type: in vivo; conditions: for AUC(0-t): read-out: AUC0-24h; for Vd: read-out: Vss
Experimental: Compound concentrations in plasma aliquots were measured by quantitative HPLC-MS/MS using an internal standard. Calibration and quality control samples were prepared using blank plasma from untreated animals. Samples were precipitated with acetonitrile and injected into a HPLC system (Agilent 1200). Separation was performed by gradients of 5 mmol/L ammonium acetate pH 4.0 and acetonitrile with 0.1% formic acid on a 2.1 mm by 50 mm XBridge BEH C18 reversed-phase column with 2.5 µm particles (Waters). The HPLC was interfaced by ESI operated in positive ionisation mode to a triple quadrupole mass spectrometer (5000 or 6500+ Triple Quad System, SCIEX) operated in multiple reaction monitoring mode. Transitions were 532.4 to 432.8 m/z for BI01810284, 525.6 to 425.7 m/z for BI01802983 and 1021.6 to 624.2 m/z for BI01580883. Chromatograms were analyzed with Analyst (SCIEX) and pharmacokinetic parameters were calculated by non-compartmental analysis using BI-proprietary software.

[3] = 5 mg/kg i.v., individual animals
[4] = 30 mg/kg p.o., individual animals
[5] = NMRI, mouse, plasma, iv, 5 mg/kg, NMRI mice, i.v., 5 mg/kg, PK study
[6] = mouse, 5 mg/kg i.v., NCA, individual animals, 5 mg/kg
[7] = mouse, 30 mg/kg p.o., NCA, individual animals, 30 mg/kg

## Cc1ncsc1-c1ccc(C(CCC(C)CCN2CCC(c3ccc4c(c3)n(C3CCCC3)c3nc(=O)c5c(Br)cccc5n43)CC2)NC(=O)C2CC(O)CN2C(=O)C(NC(=O)C2(F)CC2)C(C)(C)C)cc1 (stereo not drawn) [ACBI2]
[1]
  tolerability: well tolerated
PBRM1; 1 nM
  PBRM1 degradation, % DMSO: 23.1362 % DMSO and 79.6814 % DMSO and 32.6932 % DMSO
PBRM1; 10 nM
  PBRM1 degradation, % DMSO: 3.304 % DMSO and 17.3996 % DMSO and 0.6905 % DMSO
PBRM1; 100 nM
  PBRM1 degradation, % DMSO: 2.804 % DMSO and 11.7415 % DMSO and 30.9172 % DMSO
PBRM1; 1000 nM
  PBRM1 degradation, % DMSO: 14.3896 % DMSO and 34.4025 % DMSO and 4.024 % DMSO
[2]; [3]
  AUC: 41.8 µM·h and 38 µM·h
  AUCinf: 42.3 µM·h and 38.4 µM·h
[2]; 5 mg/kg i.v., time 0.25 h, individual animals
  Concentration: 6.8 µM
[2]; 5 mg/kg i.v., time 1 h, individual animals
  Concentration: 5.13 µM
[2]; 5 mg/kg i.v., time 6 h, individual animals
  Concentration: 1.22 µM
[2]; 5 mg/kg i.v., time 24 h, individual animals
  Concentration: 0.0949 µM
[2]; 30 mg/kg p.o. vs 5 mg/kg i.v., individual animals
  F: 23.8% and 20.9%
[2]; [4]
  AUC: 53.9 µM·h and 47.2 µM·h
  AUCinf: 55 µM·h and 48.3 µM·h
[2]; NMRI, mouse, plasma, iv, 5 mg/kg, NMRI mice, PK study
  MRT: 3.8 h
[2]; [5]
  AUC(0-t): 38 µM·h
  Vd: 0.47 L/kg
[2]; NMRI, mouse, plasma, iv, 5 mg/kg, NMRI mice, i.v., 5 mg/kg, PK study, read-out: AUC0-inf
  AUC(0-inf): 38 µM·h
[2]; NMRI, mouse, plasma, iv, 5 mg/kg, NMRI mice, i.v., 5 mg/kg, PK study, read-out: Clearance
  clearance: 0.12 L/h/kg
[2]; NMRI, mouse, plasma, po, 30 mg/kg, NMRI mice, PK study
  MRT: 6.1 h
[2]; NMRI, mouse, plasma, po, 30 mg/kg, NMRI mice, p.o., 30 mg/kg, PK study
  AUC(0-t): 50 µM·h
[2]; NMRI, mouse, plasma, po, 30 mg/kg, NMRI mice, p.o., 30 mg/kg, PK study, read-out: AUC0-inf
  AUC(0-inf): 51 µM·h
[2]; NMRI, mouse, plasma, po, 30 mg/kg, NMRI mice, p.o., 30 mg/kg, PK study, read-out: Bioavailability
  bioavailability: 22%
[2]; NMRI, mouse, plasma, po, 80 mg/kg, NMRI mice, p.o., 80 mg/kg, Xenograft study
  AUC(0-t): 84 µM·h
[2]; mouse, 5 mg/kg i.v., 0.25 h, individual animals, 5 mg/kg
  Plasma concentration: 7.53 µM and 7.36 µM
[2]; mouse, 5 mg/kg i.v., 1 h, individual animals, 5 mg/kg
  Plasma concentration: 6 µM and 5.66 µM
[2]; mouse, 5 mg/kg i.v., 6 h, individual animals, 5 mg/kg
  Plasma concentration: 1.62 µM and 1.38 µM
[2]; mouse, 5 mg/kg i.v., 24 h, individual animals, 5 mg/kg
  Plasma concentration: 0.0855 µM and 0.0743 µM
[2]; [6]
  AUC: 41.8 µM·h and 38 µM·h
  AUCinf: 42.3 µM·h and 38.4 µM·h
  CL: 0.111 L/h/kg and 0.122 L/h/kg
  Vss: 0.426 L/kg and 0.449 L/kg
[2]; mouse, 30 mg/kg p.o., 0.333 h, individual animals, 30 mg/kg
  Plasma concentration: 0.968 µM and 1.53 µM
[2]; mouse, 30 mg/kg p.o., 1 h, individual animals, 30 mg/kg
  Plasma concentration: 4.18 µM and 4.16 µM
[2]; mouse, 30 mg/kg p.o., 2 h, individual animals, 30 mg/kg
  Plasma concentration: 4.46 µM and 4.88 µM
[2]; mouse, 30 mg/kg p.o., 6 h, individual animals, 30 mg/kg
  Plasma concentration: 3.38 µM and 2.65 µM
[2]; mouse, 30 mg/kg p.o., 24 h, individual animals, 30 mg/kg
  Plasma concentration: 0.173 µM and 0.175 µM
[2]; [7]
  AUC: 53.9 µM·h and 47.2 µM·h
  AUCinf: 55 µM·h and 48.3 µM·h
  F: 23.8% and 20.9%
[2]; mouse, plasma, intravenous, 5 mg/kg, 5 mg/kg i.v., time 0.25 h, individual animals, read-out: Concentration
  concentration at 0.25 h: 7.53 µM
[2]; mouse, plasma, intravenous, 5 mg/kg, 5 mg/kg i.v., time 1 h, individual animals, read-out: Concentration
  concentration at 1 h: 6 µM
[2]; mouse, plasma, intravenous, 5 mg/kg, 5 mg/kg i.v., time 6 h, individual animals, read-out: Concentration
  concentration at 6 h: 1.62 µM
[2]; mouse, plasma, intravenous, 5 mg/kg, 5 mg/kg i.v., time 24 h, individual animals, read-out: Concentration
  concentration at 24 h: 0.0855 µM
[2]; mouse, plasma, iv, 5 mg/kg, 5 mg/kg i.v., individual animals, read-out: AUC
  AUC: 34.2 µM·h
[2]; mouse, plasma, iv, 5 mg/kg, 5 mg/kg i.v., individual animals, read-out: AUCinf
  AUC(0-inf): 34.7 µM·h
[2]; mouse, plasma, iv, 5 mg/kg, mouse, 5 mg/kg i.v., 0.25 h, individual animals, read-out: Plasma concentration
  concentration at 0.25 h: 6.8 µM
[2]; mouse, plasma, iv, 5 mg/kg, mouse, 5 mg/kg i.v., 1 h, individual animals, read-out: Plasma concentration
  concentration at 1 h: 5.13 µM
[2]; mouse, plasma, iv, 5 mg/kg, mouse, 5 mg/kg i.v., 6 h, individual animals, read-out: Plasma concentration
  concentration at 6 h: 1.22 µM
[2]; mouse, plasma, iv, 5 mg/kg, mouse, 5 mg/kg i.v., 24 h, individual animals, read-out: Plasma concentration
  concentration at 24 h: 0.0949 µM
[2]; mouse, plasma, iv, 5 mg/kg, mouse, 5 mg/kg i.v., NCA, individual animals, read-out: AUC
  AUC: 34.2 µM·h
[2]; mouse, plasma, iv, 5 mg/kg, mouse, 5 mg/kg i.v., NCA, individual animals, read-out: AUCinf
  AUC(0-inf): 34.7 µM·h
[2]; mouse, plasma, iv, 5 mg/kg, mouse, 5 mg/kg i.v., NCA, individual animals, read-out: CL
  clearance: 0.135 L/h/kg
[2]; mouse, plasma, iv, 5 mg/kg, mouse, 5 mg/kg i.v., NCA, individual animals
  Vd: 0.536 L/kg
[2]; mouse, plasma, iv, 5 mg/kg, mouse, 5 mg/kg i.v., read-out: clearance
  clearance: 0.126 L/h/kg
[2]; mouse, plasma, oral, 30 mg/kg, 30 mg/kg p.o., time 0.333 h, individual animals, read-out: Concentration
  concentration at 0.333 h: 0.898 µM
[2]; mouse, plasma, oral, 30 mg/kg, 30 mg/kg p.o., time 1 h, individual animals, read-out: Concentration
  concentration at 1 h: 4.31 µM
[2]; mouse, plasma, oral, 30 mg/kg, 30 mg/kg p.o., time 2 h, individual animals, read-out: Concentration
  concentration at 2 h: 4.29 µM
[2]; mouse, plasma, oral, 30 mg/kg, 30 mg/kg p.o., time 6 h, individual animals, read-out: Concentration
  concentration at 6 h: 2.75 µM
[2]; mouse, plasma, oral, 30 mg/kg, 30 mg/kg p.o., time 24 h, individual animals, read-out: Concentration
  concentration at 24 h: 0.265 µM
[2]; mouse, plasma, oral, 30 mg/kg, mouse, 30 mg/kg p.o. vs 5 mg/kg i.v., read-out: F% p.o. (oral bioavailability)
  bioavailability: 22%
[2]; mouse, plasma, po, 30 mg/kg, 30 mg/kg p.o. vs 5 mg/kg i.v., individual animals, read-out: F
  bioavailability: 21.5%
[2]; mouse, plasma, po, 30 mg/kg, 30 mg/kg p.o., individual animals, read-out: AUC
  AUC: 47.5 µM·h
[2]; mouse, plasma, po, 30 mg/kg, 30 mg/kg p.o., individual animals, read-out: AUCinf
  AUC(0-inf): 49.5 µM·h
[2]; mouse, plasma, po, 30 mg/kg, mouse, 30 mg/kg p.o., 0.333 h, individual animals, read-out: Plasma concentration
  concentration at 0.333 h: 0.898 µM
[2]; mouse, plasma, po, 30 mg/kg, mouse, 30 mg/kg p.o., 1 h, individual animals, read-out: Plasma concentration
  concentration at 1 h: 4.31 µM
[2]; mouse, plasma, po, 30 mg/kg, mouse, 30 mg/kg p.o., 2 h, individual animals, read-out: Plasma concentration
  concentration at 2 h: 4.29 µM
[2]; mouse, plasma, po, 30 mg/kg, mouse, 30 mg/kg p.o., 6 h, individual animals, read-out: Plasma concentration
  concentration at 6 h: 2.75 µM
[2]; mouse, plasma, po, 30 mg/kg, mouse, 30 mg/kg p.o., 24 h, individual animals, read-out: Plasma concentration
  concentration at 24 h: 0.265 µM
[2]; mouse, plasma, po, 30 mg/kg, mouse, 30 mg/kg p.o., NCA, individual animals, read-out: AUC
  AUC: 47.5 µM·h
[2]; mouse, plasma, po, 30 mg/kg, mouse, 30 mg/kg p.o., NCA, individual animals, read-out: AUCinf
  AUC(0-inf): 49.5 µM·h
[2]; mouse, plasma, po, 30 mg/kg, mouse, 30 mg/kg p.o., NCA, individual animals, read-out: F
  bioavailability: 21.5%
